Key:
[1] = molecular target: serotonin receptor 5-HT2A (Homo sapiens, UniProt P28223); test: Off-target activity, known assay methods: 5-HT2A
From the text: (§1) Further, certain compounds of the present invention show a lack of significant activity at other physiologically important receptors such as, but not limited to, the hERG channel, serotonin receptors (specifically 5-HT2A and 5-HT2B), muscarinic receptors (specifically M2), and iGluR receptors (specifically iGluR5).

iGluR5 = iGluR5 (Homo sapiens, UniProt P39086); test: Off-target activity, known assay methods: iGluR5
From the text: as §1

[2] = molecular target: serotonin receptor 5-HT2B (Homo sapiens, UniProt P41595); test: Off-target activity, known assay methods: 5-HT2B
From the text: as §1

human mGlu8 receptor = molecular target: T1, human mGlu8 receptor (Homo sapiens, UniProt O00222); test: FLIPR calcium assay for mGlu receptor selectivity, mGlu8 antagonist mode; type: cell-based; conditions: for inhibition at 12.5 µM: inhibition of EC90 glutamate response, read-out: mGlu8 % inhib. @12.5 μM; for IC50: printed in brackets below the % inhib. value
T1 construct: expressed in transfected cells; host or cells: AV12 cells, co-expressing rat EAAT1 and Galpha15
T1 sequence (O00222 34-908): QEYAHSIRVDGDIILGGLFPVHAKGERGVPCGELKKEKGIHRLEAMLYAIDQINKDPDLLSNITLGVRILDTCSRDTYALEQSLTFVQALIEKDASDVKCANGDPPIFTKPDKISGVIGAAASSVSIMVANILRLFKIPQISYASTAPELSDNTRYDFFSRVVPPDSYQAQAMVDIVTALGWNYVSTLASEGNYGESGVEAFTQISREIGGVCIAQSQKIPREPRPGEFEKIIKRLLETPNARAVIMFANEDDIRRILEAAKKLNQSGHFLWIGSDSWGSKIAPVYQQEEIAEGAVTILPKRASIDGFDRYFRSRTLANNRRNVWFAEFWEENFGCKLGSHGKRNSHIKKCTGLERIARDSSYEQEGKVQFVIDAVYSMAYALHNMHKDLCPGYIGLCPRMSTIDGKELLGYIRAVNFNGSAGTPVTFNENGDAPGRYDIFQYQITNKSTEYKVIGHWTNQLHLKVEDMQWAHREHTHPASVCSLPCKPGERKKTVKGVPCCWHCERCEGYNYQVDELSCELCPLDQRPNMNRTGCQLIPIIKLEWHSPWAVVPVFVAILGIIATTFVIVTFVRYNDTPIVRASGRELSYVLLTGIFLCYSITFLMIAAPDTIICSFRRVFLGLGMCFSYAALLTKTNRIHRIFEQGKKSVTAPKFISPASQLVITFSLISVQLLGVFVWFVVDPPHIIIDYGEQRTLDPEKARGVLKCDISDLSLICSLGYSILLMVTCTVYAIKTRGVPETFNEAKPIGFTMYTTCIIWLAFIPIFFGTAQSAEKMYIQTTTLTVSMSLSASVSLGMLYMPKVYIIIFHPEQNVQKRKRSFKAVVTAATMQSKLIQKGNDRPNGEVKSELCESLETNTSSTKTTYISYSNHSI
From the text: (§2) FLIPR and cAMP Assays for mGlu Receptor Selectivity
(§3) The relative antagonist potencies of the compounds of the invention for the other human mGlu receptors can be assessed with either a cAMP assay or fluorometric calcium response assay (see for example Fell et al., JPET (in press)). Briefly, individual AV12 cell lines containing the rat EAAT1 glutamate transporter and stably expressing the human mGlu1, 2, 3, 4, 5, 6, & 8 receptors are used for these studies. The mGlu1 and 5 receptors are […], so they naturally signal through phospholipase C, producing a calcium flux response which can be used to measure receptor activation using a Fluorometric Imaging Plate Reader (FLIPR, Molecular Devices). The cell lines expressing the mGlu2, 3, 4, and 8 receptor are designed to express the Gα15 subunit so that these Gi-coupled receptors will generate a calcium flux response similar to the mGlu1 and 5 receptor expressing cell lines. The mGlu6 receptor is tested in a cAMP format using methods analogous to those developed for mGlu2 and mGlu3 above. These cell lines are maintained as previously described except that amounts of L-glutamine and selection agents (geneticin, hygromycin B, zeocin, and blasticidin) may vary depending on the cell line. Confluent cultures are passaged biweekly.
(§4) Intracellular calcium levels are monitored using FLIPR before and after the addition of test compounds and Fluo-3 AM (Invitrogen) or Calcium 4 (Molecular Devices) dye, depending on the cell line. Cells are plated 24 hours prior to assay in a variable concentration of glutamine and a variable density of cells per well, depending on the cell line. The medium is removed and the cells are incubated with 8 μM of dye (50 μl per well) for 90 or 120 minutes (depending on cell line) at 25° C. A single-addition FLIPR assay generating an 11-point concentration response curve for the agonist glutamate is conducted prior to each experiment to confirm the appropriate sensitivity of the cells. The results are analyzed using GraphPad Prism v4.03 to calculate the concentrations of glutamate needed to induce the EC90 (antagonist assay) and EC10 (potentiator assay) responses.
(§5) Compounds are tested at each mGlu receptor in a two-addition FLIPR assay using a 10-point concentration response profile starting at a final concentration of 25 μM for the agonist assay and 12.5 μM for the potentiator and antagonist assays. The first addition detects any agonist activity, and the second addition consists of 100 μl of select concentrations (depending on cell line) of glutamate in assay buffer generating an EC10 or EC90 glutamate response. Agonist effects are quantified as percent stimulation induced by compound alone relative to the maximal glutamate response. Antagonist effects are quantified by calculating the percent inhibition of the EC90 glutamate response caused by the compound. Potentiation effects are quantified as percent increase in the presence of an EC10 response in glutamate relative to the ECmax response. All data are calculated as relative IC50 or EC50 values using a four-parameter logistic curve fitting program (ActivityBase v5.3.1.22).

human mGlu4 receptor = molecular target: T2, human mGlu4 receptor (Homo sapiens, UniProt Q14833); test: FLIPR calcium assay for mGlu receptor selectivity, mGlu4 antagonist mode; type: cell-based; conditions: inhibition of EC90 glutamate response, read-out: mGlu4 % inhib. @12.5 μM
T2 construct: expressed in transfected cells; host or cells: AV12 cells, co-expressing rat EAAT1 and Galpha15
T2 sequence (Q14833 33-912): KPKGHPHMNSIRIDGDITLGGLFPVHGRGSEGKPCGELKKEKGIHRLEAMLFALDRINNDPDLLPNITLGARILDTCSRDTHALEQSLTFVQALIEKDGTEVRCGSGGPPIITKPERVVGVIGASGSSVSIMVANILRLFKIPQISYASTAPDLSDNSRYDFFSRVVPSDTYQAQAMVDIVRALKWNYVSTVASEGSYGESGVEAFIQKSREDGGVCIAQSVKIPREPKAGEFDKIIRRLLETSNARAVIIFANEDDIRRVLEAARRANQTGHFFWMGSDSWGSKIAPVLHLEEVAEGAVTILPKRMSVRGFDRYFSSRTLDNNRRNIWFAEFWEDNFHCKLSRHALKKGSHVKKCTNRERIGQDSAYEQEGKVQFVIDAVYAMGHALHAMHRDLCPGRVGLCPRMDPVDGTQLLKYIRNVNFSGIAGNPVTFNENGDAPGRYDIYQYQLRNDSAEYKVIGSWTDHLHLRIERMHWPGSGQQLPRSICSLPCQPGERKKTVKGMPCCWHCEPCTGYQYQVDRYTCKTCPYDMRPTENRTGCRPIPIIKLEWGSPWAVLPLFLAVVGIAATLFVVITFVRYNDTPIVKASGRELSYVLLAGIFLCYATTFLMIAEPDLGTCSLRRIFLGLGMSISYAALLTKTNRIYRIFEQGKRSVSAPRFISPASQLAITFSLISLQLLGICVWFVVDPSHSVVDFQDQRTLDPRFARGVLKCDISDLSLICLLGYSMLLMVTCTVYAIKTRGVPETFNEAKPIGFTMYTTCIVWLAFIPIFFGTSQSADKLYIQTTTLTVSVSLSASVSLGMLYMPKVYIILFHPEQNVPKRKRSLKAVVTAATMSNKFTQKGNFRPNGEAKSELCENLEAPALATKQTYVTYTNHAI
From the text: as §2, §3, §4, §5

human mGlu2 receptors = molecular target: T3, human mGlu2 receptors (Homo sapiens, UniProt Q14416); test: mGlu2 receptor cAMP antagonist assay; type: cell-based; conditions: reversal of DCG IV (EC90) inhibition of forskolin-stimulated cAMP; AV12 cells
T3 construct: expressed in transfected cells; host or cells: AV12 cells, co-expressing rat EAAT1
T3 sequence (Q14416 19-872): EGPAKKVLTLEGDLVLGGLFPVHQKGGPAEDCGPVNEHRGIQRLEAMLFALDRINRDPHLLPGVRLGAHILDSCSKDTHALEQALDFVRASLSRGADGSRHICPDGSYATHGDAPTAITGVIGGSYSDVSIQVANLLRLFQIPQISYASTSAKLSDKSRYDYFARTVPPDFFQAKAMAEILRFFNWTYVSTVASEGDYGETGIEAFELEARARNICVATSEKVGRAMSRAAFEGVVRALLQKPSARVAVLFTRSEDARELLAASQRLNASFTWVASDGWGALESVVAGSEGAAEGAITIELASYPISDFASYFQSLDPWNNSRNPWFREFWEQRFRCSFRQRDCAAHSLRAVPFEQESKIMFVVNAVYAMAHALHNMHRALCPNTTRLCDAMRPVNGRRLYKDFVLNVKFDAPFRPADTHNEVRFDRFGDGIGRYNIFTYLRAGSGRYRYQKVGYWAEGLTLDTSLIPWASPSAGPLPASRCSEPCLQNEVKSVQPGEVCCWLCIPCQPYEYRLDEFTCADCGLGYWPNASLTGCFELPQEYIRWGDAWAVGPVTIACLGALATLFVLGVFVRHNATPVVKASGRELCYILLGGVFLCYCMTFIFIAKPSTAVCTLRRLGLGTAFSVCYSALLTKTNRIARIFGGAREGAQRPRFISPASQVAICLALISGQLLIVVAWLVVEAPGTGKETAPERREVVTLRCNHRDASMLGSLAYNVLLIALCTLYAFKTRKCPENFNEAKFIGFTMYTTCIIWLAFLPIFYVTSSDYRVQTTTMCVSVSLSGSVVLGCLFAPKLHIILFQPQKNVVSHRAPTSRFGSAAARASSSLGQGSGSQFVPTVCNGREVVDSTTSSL
Method: mGlu2 and mGlu3 Receptor cAMP Antagonist Assays
Antagonist activity is assayed in recombinant AV12 cells stably expressing human mGlu2 or mGlu3 receptors and the rat glutamate transporter EAAT1 (Excitatory Amino Acid Transporter 1). The cell lines are maintained by culturing in DMEM with high glucose and pyridoxine hydrochloride supplemented with 5% dialyzed fetal bovine serum (FBS), 1 mM sodium pyruvate, 1 mM HEPES and 1 mM L-glutamine; geneticin and hygromycin B are used as selection antibiotics.
Reversal of the inhibition of forskolin-stimulated cAMP production by test compounds is measured using homogeneous time resolved fluorescence technology (HTRF; Cisbio cat #62AM4PEB). The medium is removed and the cells are incubated with 100 μl cAMP stimulation buffer (STIM) for 30 minutes at 37° C. […] Cells are incubated at 37° C. for 20 minutes. To measure the cAMP levels, cAMP-d2 conjugate and anti cAMP-cryptate conjugate in lysis buffer are incubated with the treated cells at room temperature for 1 hour (mGlu2) or 1.5 hour (mGlu3). […] The raw data are converted to cAMP amount (pmole/well) using a cAMP standard curve generated for each experiment. Relative IC50 values are calculated from the top-bottom range of the concentration response curve using a four-parameter logistic curve fitting program (ActivityBase v5.3.1.22).

human mGlu1 receptor = molecular target: T4, human mGlu1 receptor (Homo sapiens, UniProt Q13255); test: FLIPR calcium assay for mGlu receptor selectivity, mGlu1 antagonist mode; type: cell-based; conditions: inhibition of EC90 glutamate response, read-out: mGlu1 % inhib. @12.5 μM
T4 construct: expressed in transfected cells; host or cells: AV12 cells, co-expressing rat EAAT1
T4 sequence (Q13255 19-1194): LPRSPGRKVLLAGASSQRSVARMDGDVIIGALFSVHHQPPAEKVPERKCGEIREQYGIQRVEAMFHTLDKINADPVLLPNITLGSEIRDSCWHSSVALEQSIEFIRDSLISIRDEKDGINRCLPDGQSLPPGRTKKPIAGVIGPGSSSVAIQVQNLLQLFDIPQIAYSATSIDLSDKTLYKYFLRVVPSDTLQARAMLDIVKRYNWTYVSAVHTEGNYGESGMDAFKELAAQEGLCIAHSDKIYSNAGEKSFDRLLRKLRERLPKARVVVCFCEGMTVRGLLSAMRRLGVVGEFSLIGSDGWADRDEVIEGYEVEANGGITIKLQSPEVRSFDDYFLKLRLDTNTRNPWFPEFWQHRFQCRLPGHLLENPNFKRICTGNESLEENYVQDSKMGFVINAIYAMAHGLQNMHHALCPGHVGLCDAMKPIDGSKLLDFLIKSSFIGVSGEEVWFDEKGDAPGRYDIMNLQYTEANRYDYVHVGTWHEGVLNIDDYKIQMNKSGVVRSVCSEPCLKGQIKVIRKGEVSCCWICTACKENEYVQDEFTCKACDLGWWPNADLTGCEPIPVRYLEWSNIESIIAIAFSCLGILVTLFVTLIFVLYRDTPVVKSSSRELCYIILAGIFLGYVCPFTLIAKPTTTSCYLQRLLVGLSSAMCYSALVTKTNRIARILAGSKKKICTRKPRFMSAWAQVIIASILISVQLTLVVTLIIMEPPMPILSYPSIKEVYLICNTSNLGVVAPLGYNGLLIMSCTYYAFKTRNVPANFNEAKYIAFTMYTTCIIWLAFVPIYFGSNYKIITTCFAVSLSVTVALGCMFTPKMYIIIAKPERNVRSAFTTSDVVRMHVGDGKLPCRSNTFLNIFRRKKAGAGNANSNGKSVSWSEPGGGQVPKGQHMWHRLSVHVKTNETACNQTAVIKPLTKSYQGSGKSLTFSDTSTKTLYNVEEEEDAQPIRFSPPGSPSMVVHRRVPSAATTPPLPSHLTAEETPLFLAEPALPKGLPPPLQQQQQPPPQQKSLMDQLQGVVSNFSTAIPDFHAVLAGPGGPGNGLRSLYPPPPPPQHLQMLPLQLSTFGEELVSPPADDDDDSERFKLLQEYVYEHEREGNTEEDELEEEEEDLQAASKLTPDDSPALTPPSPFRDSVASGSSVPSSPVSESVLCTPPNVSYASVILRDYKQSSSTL
From the text: as §2, §3, §4, §5

human mGlu5 receptor = molecular target: T5, human mGlu5 receptor (Homo sapiens, UniProt P41594); test: FLIPR calcium assay for mGlu receptor selectivity, mGlu5 antagonist mode; type: cell-based; conditions: inhibition of EC90 glutamate response, read-out: mGlu5 % inhib. @12.5 μM
T5 construct: expressed in transfected cells; host or cells: AV12 cells, co-expressing rat EAAT1
T5 sequence (P41594 19-1212 limits assumed): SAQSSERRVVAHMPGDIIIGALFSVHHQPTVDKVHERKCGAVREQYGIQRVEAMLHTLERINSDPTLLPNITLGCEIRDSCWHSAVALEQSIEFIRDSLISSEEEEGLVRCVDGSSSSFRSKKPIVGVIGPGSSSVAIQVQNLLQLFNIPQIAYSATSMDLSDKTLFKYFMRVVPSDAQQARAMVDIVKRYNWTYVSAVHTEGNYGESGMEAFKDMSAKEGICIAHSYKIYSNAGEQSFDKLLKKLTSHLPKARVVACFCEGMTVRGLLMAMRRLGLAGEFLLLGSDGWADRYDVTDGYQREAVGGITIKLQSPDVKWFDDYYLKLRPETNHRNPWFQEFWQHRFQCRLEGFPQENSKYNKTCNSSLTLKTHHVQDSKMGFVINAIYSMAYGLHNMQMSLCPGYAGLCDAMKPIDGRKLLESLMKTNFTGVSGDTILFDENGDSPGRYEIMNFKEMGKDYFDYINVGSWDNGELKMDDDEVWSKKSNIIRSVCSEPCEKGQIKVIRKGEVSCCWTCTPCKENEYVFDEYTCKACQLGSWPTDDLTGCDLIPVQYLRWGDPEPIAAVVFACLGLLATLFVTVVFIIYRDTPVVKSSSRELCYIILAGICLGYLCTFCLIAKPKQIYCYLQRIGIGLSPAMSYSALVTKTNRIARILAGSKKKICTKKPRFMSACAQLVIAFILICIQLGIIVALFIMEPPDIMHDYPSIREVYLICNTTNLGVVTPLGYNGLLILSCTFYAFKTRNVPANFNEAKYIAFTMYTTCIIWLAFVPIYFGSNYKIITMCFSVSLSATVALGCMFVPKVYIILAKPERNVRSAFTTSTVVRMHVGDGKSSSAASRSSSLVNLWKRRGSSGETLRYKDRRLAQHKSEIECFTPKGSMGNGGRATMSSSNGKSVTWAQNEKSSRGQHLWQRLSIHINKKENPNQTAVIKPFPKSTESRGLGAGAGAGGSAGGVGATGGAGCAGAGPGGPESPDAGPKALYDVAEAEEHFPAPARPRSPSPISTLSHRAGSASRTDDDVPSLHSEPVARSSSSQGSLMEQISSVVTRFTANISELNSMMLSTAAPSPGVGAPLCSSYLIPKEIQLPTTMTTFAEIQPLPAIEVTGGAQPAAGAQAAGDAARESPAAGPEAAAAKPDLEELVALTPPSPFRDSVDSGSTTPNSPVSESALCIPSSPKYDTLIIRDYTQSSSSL
From the text: as §2, §3, §4, §5

| SMILES | activity at 5-HT2A [1] | activity at iGluR5 (iGluR5) | activity at 5-HT2B [2] | inhibition at 12.5 µM (human mGlu8 receptor) [%] | IC50 (human mGlu8 receptor) [nM] | inhibition at 12.5 µM (human mGlu4 receptor) [%] | IC50 (human mGlu2 receptors) [nM] | inhibition at 12.5 µM (human mGlu1 receptor) [%] | inhibition at 12.5 µM (human mGlu5 receptor) [%] |
| --- | --- | --- | --- | --- | --- | --- | --- | --- | --- |
| N[C@]1(C(=O)O)[C@@H]2[C@@H](C(=O)O)[C@@H]2[C@H](O)[C@H]1OCc1ccc(Cl)c(Cl)c1 [Example 1, (1S,2R,3S,4S,5R,6R)-2-Amino-3-[(3,4-dichlorobenzyl)oxy]-4-hydroxybicyclo[3.1.0]hexane-2,6-dicarboxylic acid] | no appreciable activity | no appreciable activity | no appreciable activity | 78.4 | 1900 | 28.5 | 43.3 ± 5.8 | -0.47 | 4.8 |
| N[C@]1(C(=O)O)[C@@H]2[C@@H](C(=O)O)[C@@H]2[C@H](Sc2nc[nH]n2)[C@H]1OCc1ccc(Cl)c(Cl)c1 [Example 2, (1R,2R,3S,4S,5R,6R)-2-Amino-3-[(3,4-dichlorobenzyl)oxy]-4-(1H-1,2,4-triazol-3-ylsulfanyl)bicyclo[3.1.0]hexane-2,6-dicarboxylic acid] | – | – | – | 92.3 | 507 | 69 | 13.1 ± 1.9 | 8.6 | -12.9 |
| CC(=O)N[C@H]1[C@H]2[C@H](C(=O)O)[C@H]2[C@](N)(C(=O)O)[C@@H]1OCc1ccc(Cl)c(Cl)c1 [Example 4, (1S,2R,3R,4S,5R,6S)-4-(Acetylamino)-2-amino-3-[(3,4-dichlorobenzyl)oxy]bicyclo[3.1.0]hexane-2,6-dicarboxylic acid] | – | – | – | 23.4 | – | 13.3 | 25.5 ± 2.8 | -2 | 22.6 |

More lines, now with the values ahead:

| activity at 5-HT2A [1] | activity at iGluR5 (iGluR5) | activity at 5-HT2B [2] | inhibition at 12.5 µM (human mGlu8 receptor) [%] | IC50 (human mGlu8 receptor) [nM] | inhibition at 12.5 µM (human mGlu4 receptor) [%] | IC50 (human mGlu2 receptors) [nM] | inhibition at 12.5 µM (human mGlu1 receptor) [%] | inhibition at 12.5 µM (human mGlu5 receptor) [%] | SMILES |
| --- | --- | --- | --- | --- | --- | --- | --- | --- | --- |
| – | – | – | 46.7 | – | 32.2 | 52 ± 17.9 | 11.2 | 22.7 | Cl.Cn1cnc(S[C@H]2[C@H]3[C@H](C(=O)O)[C@H]3[C@](N)(C(=O)O)[C@@H]2OCc2ccc(Cl)c(Cl)c2)n1 [Example 7, (1R,2R,3S,4S,5R,6R)-2-Amino-3-[(3,4-dichlorophenyl)methoxy]-4-[(1-methyl-1,2,4-triazol-3-yl)sulfanyl]bicyclo[3.1.0]hexane-2,6-dicarboxylic acid hydrochloride.] |
| – | – | – | 13.3 | – | 46.9 | 22 ± 3 | 5 | 13.8 | Cl.N[C@]1(C(=O)O)[C@@H]2[C@@H](C(=O)O)[C@@H]2[C@H](NC(=O)CO)[C@H]1OCc1ccc(Cl)c(Cl)c1 [Example 9, (1S,2R,3R,4S,5R,6S)-2-Amino-3-[(3,4-dichlorobenzyl)oxy]-4-[(hydroxyacetyl)amino]bicyclo[3.1.0]hexane-2,6-dicarboxylic acid hydrochloride] |
